Data published in ChEMBL document CHEMBL6121057, “Discovery of an Orally Bioavailable STING Inhibitor with In Vivo Anti-Inflammatory Activity in Mice with STING-Mediated Inflammation” (J Med Chem, 2025).

Experiments:
[1] = Metabolic stability in human liver microsomes assessed as intrinsic clearance; format: ADME, Microsome; settings: read-out: CLH
[2] = Metabolic stability in human liver microsomes assessed as half life; format: ADME, Microsome

| CLint scaled [1] [mL/min/kg] | half-life [2] [min] | SMILES |
| --- | --- | --- |
| 21.7 | 41 | O=C(Nc1ccc(C2CCC(F)(F)CC2)cc1)Nc1c[nH]c2ccc(F)cc12 |
| 53 | 16.9 | CCc1ccc(NC(=O)Nc2c[nH]c3ccc(F)cc23)cc1 |
